Results reported in publication PMC12441834, “Highly Potent and Subtype-Selective Sperm-Specific Potassium Channel SLO3 Inhibitors Display High Tissue Exposure in the Murine Female Reproductive Tract” (ACS Pharmacology & Translational Science, 2025).

Columns and labels:
hSLO1 = molecular target: T1, hSLO1 (Homo sapiens, UniProt Q12791); assay: SLO1 inhibition in HEK cells; format: cell-based
T1 construct: expressed in transfected cells; host or cells: HEK293
Method: (§1) HEK293 cells were transfected with the bicistronic vector pBUD-CE4.1 containing the genes of interest and a gene conferring antibiotic resistance. Cells were exposed to gradients of selection antibiotics, and optimal growth conditions for the stable lines were as follows: SLO3 and γ2 (SLO3-γ2) supplemented with 700 μg/mL Zeocin (Invitrogen); human SLO1 and β1 (SLO1-β1) with 1 mg/mL G418 (Sigma) and 3 μg/mL puromycin (Corning, Thermo Fisher); and human SLO1 and β4 (SLO1-β4) with 250 μg/mL Zeocin and 3 μg/mL puromycin. All cell lines were grown in Dulbecco’s Modified Eagle Medium (Gibco, Thermo Fisher) supplemented with 10% fetal bovine serum, 1% penicillin–streptomycin (Millipore Sigma), and selection antibiotics. To generate cells expressing SLO1 and γ2, stable SLO1-expressing HEK293 cells were transiently transfected with expression vectors for γ2 and green fluorescent protein (GFP) in the presence of lipofectamine (Invitrogen) for 5 h.
(§2) The cells were then washed and incubated in supplemented Dulbecco’s Modified Eagle Medium for 48 h before use. Patch-clamp electrophysiology was performed only on cells expressing GFP.
(§3) Currents in HEK293 cells were measured in the whole-cell patch-clamp configuration with an Axopatch 200B amplifier, digitized with a Digidata 1440A, and interfaced with Clampex 10.6.0.13 (Molecular Devices). […] An isolated cell was located on an Axiovert 200 microscope (Zeiss), and a gigaohm seal was formed with a borosilicate pipette with resistance between 3 and 6 MΩ and filled with internal solution (140 mM KMeSO3, 10 mM HEPES, 10 mM MES, 1 mM EGTA, pH 7). The seal was then broken by applying a negative pressure. Cells were kept at a holding potential of −60 mV for 50 ms, tested with a stepped voltage protocol from −80 to +150 mV in 10 mV increments for 100 ms, and then dropped to −40 mV for 50 ms with 2.5 s between sweeps. This protocol was used to record currents present with increasing concentration of our compound of interest or 3 μL/mL vehicle (DMSO) in the bath solution. Individual cells were tested with between 1 and 5 concentrations of the compound of interest or until the patch was lost. Currents were allowed to stabilize before the initial recording and after the perfusion solution was changed before recording.

human SLO3 = molecular target: T2, human SLO3 (Homo sapiens, UniProt A8MYU2); assay: SLO3 patch-clamp electrophysiology, human SLO3-γ2 expressed in HEK293 cells; format: cell-based; conditions: for inhibition at 10 µM: HEK293, read-out: HEK hSLO3 % of inhib. at 10 μM; for IC50: transfected HEK293 cells (human SLO3-γ2), whole-cell patch clamp, currents at +100 mV, read-out: hSLO3 IC50
T2 construct: expressed in transfected cells
T2 sequence (A8MYU2 1-1149): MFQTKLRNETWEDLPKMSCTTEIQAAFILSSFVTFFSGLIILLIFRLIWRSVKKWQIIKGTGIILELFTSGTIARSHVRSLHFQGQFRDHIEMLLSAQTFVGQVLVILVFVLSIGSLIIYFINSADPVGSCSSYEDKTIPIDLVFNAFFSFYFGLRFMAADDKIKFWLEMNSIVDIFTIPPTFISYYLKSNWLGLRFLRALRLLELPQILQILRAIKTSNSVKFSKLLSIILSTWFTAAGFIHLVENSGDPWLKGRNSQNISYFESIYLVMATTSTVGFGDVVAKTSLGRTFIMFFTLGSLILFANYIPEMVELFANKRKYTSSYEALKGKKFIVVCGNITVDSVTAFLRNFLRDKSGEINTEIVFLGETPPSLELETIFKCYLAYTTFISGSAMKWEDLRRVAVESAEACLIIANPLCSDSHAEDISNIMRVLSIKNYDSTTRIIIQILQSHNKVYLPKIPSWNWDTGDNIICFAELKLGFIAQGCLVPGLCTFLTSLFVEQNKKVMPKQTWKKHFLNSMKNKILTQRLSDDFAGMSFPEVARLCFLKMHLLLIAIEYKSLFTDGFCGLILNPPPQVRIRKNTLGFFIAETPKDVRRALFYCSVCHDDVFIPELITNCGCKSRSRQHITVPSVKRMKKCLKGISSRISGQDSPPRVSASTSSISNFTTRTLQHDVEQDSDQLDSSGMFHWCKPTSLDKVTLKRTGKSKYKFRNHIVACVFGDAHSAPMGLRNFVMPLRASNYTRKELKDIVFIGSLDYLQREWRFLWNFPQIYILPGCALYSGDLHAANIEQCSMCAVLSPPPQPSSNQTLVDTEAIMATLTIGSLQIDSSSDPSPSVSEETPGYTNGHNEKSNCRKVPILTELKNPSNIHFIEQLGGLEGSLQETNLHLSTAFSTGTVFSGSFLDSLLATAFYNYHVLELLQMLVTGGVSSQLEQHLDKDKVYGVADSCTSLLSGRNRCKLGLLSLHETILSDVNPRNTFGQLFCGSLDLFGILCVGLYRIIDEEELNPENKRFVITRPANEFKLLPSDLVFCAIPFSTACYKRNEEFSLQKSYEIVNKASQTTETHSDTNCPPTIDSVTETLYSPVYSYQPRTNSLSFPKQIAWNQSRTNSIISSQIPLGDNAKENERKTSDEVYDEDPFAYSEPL
T2 sequence (Q8N7C0 24-313 partner): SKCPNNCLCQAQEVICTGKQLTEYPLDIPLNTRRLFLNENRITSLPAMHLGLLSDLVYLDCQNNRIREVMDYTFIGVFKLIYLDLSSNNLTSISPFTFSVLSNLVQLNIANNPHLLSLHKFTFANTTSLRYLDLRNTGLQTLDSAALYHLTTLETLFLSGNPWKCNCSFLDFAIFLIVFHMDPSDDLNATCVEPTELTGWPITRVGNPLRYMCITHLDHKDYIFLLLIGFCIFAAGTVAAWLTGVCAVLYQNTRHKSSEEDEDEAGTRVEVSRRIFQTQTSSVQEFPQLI
Method: as §1, §2, §3
Data were analyzed with a pClamp 10.6 (Molecular Devices). VU6047606 and VU6032735 inhibition dose–response relationships were fit by the Hill equation in OriginPro 7.5 (OriginLab Corporation): R=1/1+(C/IC50)^n+Ioff , in which R is fractional unblock, C is compound concentration, IC50 is the half inhibition concentration, n is the Hill coefficient, and I off is an offset item for leak current. Error bars in the figures represent the SDs. Each data point is averaged from at least 5 measurements. Curve-fitting results are reported as the fitted values with standard error, which was estimated by OriginPro according to the Error Propagation formula.

T1 sequence (Q12791 whole entry): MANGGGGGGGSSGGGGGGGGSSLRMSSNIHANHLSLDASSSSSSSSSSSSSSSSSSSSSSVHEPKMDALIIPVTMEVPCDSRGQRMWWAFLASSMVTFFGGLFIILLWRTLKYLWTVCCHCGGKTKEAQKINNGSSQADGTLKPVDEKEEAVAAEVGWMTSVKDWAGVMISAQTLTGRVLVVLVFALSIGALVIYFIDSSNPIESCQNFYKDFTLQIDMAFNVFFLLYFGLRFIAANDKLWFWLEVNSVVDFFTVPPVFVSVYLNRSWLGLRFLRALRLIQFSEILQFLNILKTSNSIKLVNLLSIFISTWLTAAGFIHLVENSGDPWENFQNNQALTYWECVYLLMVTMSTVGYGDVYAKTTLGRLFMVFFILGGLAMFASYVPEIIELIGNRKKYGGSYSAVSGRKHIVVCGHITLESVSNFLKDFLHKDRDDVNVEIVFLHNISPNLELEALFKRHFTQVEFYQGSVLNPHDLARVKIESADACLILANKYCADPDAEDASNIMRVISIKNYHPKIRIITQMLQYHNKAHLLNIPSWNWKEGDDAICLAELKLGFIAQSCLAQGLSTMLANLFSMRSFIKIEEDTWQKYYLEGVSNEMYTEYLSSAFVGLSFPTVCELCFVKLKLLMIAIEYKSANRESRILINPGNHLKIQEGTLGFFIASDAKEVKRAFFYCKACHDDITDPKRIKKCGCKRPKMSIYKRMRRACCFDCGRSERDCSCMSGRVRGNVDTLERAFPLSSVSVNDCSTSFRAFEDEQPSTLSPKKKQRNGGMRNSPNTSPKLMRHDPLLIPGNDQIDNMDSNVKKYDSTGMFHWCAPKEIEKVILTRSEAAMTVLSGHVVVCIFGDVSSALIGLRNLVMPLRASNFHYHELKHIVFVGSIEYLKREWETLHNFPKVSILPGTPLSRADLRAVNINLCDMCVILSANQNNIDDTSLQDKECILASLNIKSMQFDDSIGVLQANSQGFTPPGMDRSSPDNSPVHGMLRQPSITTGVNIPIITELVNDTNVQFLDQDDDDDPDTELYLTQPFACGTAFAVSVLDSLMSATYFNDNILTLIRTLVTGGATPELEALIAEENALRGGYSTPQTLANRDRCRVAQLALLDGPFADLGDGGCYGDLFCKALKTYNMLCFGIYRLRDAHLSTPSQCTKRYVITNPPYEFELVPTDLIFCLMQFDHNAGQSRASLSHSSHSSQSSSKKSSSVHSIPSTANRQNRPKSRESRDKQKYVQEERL

| SMILES | inhibition at 10 µM (human SLO3) | IC50 (human SLO3) | also measured |
| --- | --- | --- | --- |
| Cc1cc(Cl)cc2sc(O[C@H]3CCN(C(=O)CCCS(=O)(=O)c4cccc(Br)c4)C[C@H]3F)nc12 [VU6047606] | 100% | 43 nM | inhibition at 30 µM (hSLO1; HEK293, read-out: HEK hSLO1 % inhib. at 30 μM): 10% |
| O=C(c1ccc(OCc2ccc(OC(F)(F)F)cc2)cc1)N1CCN(c2ccc(C(F)(F)F)cn2)CC1 [VU6032735] | 100% | 165 nM | HEK hSLO1 % inhib. at 30 μM (hSLO1; 30 μM): No inhibition |
| Cc1cc(Cl)cc2sc(O[C@@H]3CCN(C(=O)CCCS(=O)(=O)c4cccc(Br)c4)C[C@@H]3F)nc12 [VU6047608] | – | 583 nM | – |
| Cc1cc(Cl)cc2sc(OC3CCN(C(=O)CCCS(=O)(=O)c4cccc(Br)c4)CC3F)nc12 (stereo not drawn) [VU6045330] | – | 135 nM | IC50 (hSLO1): 109000 nM; SLO1 selectivity (fold selective for SLO3) (hSLO1; SLO1 IC50 / hSLO3 IC50): 802 fold |
| Cc1cc(Cl)cc2sc(O[C@H]3CCN(C(=O)CCCS(=O)(=O)c4cccc(Br)c4)C[C@@H]3F)nc12 [VU6047609] | – | 112 nM | – |
| Cc1cc(Cl)cc2sc(O[C@@H]3CCN(C(=O)CCCS(=O)(=O)c4cccc(Br)c4)C[C@H]3F)nc12 [VU6047607] | – | 457 nM | – |
